Assay results: patent publication US9199978B2, “Acrylamide compounds and use thereof for inhibiting apoptosis” (CHINESE PLA GENERAL HOSPITAL, priority 2010, dated 2015)

How the values were obtained:
Type in all cases: cell-based, Wistar sucking mice
[1] = tested on: cardiomyocyte apoptosis induced by anoxia; assay: Protection against anoxia-induced cardiomyocyte apoptosis (HCS fluorescence staining); settings: for Nucleus area (%): Hoechst staining; for Mitochondrial transmembrane potential: MitoTracker Red
Procedure: (§1) The isolation and culture of cardiomyocytes were performed by referring to the differential adhesion method (Kreider, A. Messing, H. Doan, S. U. Kim, R. P. Lisak and D. E. Pleasure, Enrichment of Schwann cell cultures from neonatal rat sciatic nerve by differential adhesion, Brain Res 2 (1981), pp. 433-444). Wistar sucking mice newborn within 24 h were used, sterilized at skin of ventrum with iodine tincture and ethanol, subjected to thoracotomy using scissors at subxiphoid median line with a deviation to left, heart was taken out after slant thoracotomy and placed in PBS precooled with ice; the heart was softly blown and beaten with 0.01 M PBS to remove blood cells and other tissues, then cut into pieces with 0.5 mm^3 size, washed with 0.01 M PBS repeatedly for 2-3 times; the pieces were placed in conical flask, added with 4 ml of 0.125% pancretin, 1 ml of 0.1% collagenase II (final concentrations separately being 0.1% and 0.02%), shaken in 37° C. water bath for 10 min, the supernatant was discarded; then 4 ml of 0.125% pancretin and 1 ml of 0.1% collagenase II again, shaken in 37° C. water bath for digestion for 10 min, the supernatant was sucked and transferred to a centrifuge tube, and the supernatant was added with DMEM containing 10% FBS to terminate digestion; the step of shaking and digestion in water bath was repeated for 3-4 times, until the tissue pieces were completely digested; the collected cell suspension was centrifuged under 1000 rpm for 10 min, the supernatant was removed, then a culture medium was added for resuspension; the resuspended cells were inoculated in a cell culture flask, placed in CO2 incubator at 37° C. for incubation for 1.5 h, then the culture medium was sucked out, countered under microscope, then DMEM culture medium containing 10% FBS was used to adjust cell density, inoculated in an amount of 1×10^4 to a 96-well plate, placed in 5% CO2 incubator at 37° C. for 24 h, then half medium was replaced, a culture medium containing 0.1% Brdu was supplementally added; then the medium was replaced once per 48 h, and primary cardiomyocytes were obtained after 4 days of cultivation.
Cardiomyocyte was obtained by primary culture according to Example 18, cell density 10^4/mL, each wall was added with 100 μL of suspension of the cells. The cells were incubated at 37° C., 5% CO2 environment for 96 h (replacing solution once per 48 h). After primary culture for 4 days, cell apoptosis was induced by placing in an anoxia incubator, the compounds of the present invention at different concentrations were added for pretreatment 30 min before inducing cell apoptosis, then placed in 37° C., 5% CO2-95% N2 incubator and cultured for 15.5 h. It was 30 min before the compound incubation finished, 50 μL of culture medium, 50 μL of Mitotracker/Hoechst solution, were added, and the cells were then continuously cultured at 37° C., 5% CO2-95% N2 for 30 min.
Each well was directly added with 100 μL of fixing solution, without sucking out the culture medium, incubated at room temperature in fume cupboard for 10 min. The pre-heated fixing solution was very important for keeping cell integrity.
The solution of each well was sucked out (the plate could be turned over), washed with 1× Wash Buffer (100 μL/well) once. Carefulness was kept during operation and washing procedure to maintain cell adhesion and integrity. Good results could be obtained by slowly sucking and releasing liquid. Wash Buffer was sucked out, 1× penetrating membrane solution (100 uL/well) was added, incubated at room temperature for 15 min. The penetrating membrane solution was sucked out, each well was washed once with 100 μL/well of 1× Wash Buffer. The Wash Buffer was sucked out, each well was added with 50 μL of Alexa Fluor 488 Phalloidin Solution, incubated at room temperature in dark for 30 min. The Alexa Fluor 488 Phalloidin solution was sucked out, washed with 1× Wash Buffer for three times, and the solution of the last time was kept in the well. […]

cardiomyocytes = assay: Measurement of cell inhibition rate (MTT) on normal primary cardiomyocytes; settings: 48 h; for inhibition at 300 µM: Cardiomyocyte; for Inhibition rate (%) of cardiomyocytes: 300 μM
Procedure: as §1
The isolated primary culture of cardiomyocytes was inoculated in an amount of 10^4 cells per well to a 96-well plate, and the volume of each well was 100 μl (marginal wells were filled with sterile PBS). […] After continuous inoculation for 48 h, each well was added with 20 μl of MTT solution (5 mg/ml, formulated with PBS (pH=7.4), i.e., 0.5% MTT), and the cultivation was continued for 4 h. After the end of cultivation, culture medium in wells was carefully sucked out. Each well was added with 150 μl of DMSO, shaken at a low speed in a shaking table for 10 min, so that the crystal was sufficiently dissolved. The optical density (OD) value of each well was measured at wavelength of 550 nm by enzyme-linked immunoassay instrument, and each well was repeatedly measured for 5 times and the results were recorded.

[2] = tested on: TG-induced cardiomyocytes apoptosis; assay: Protection against TG-induced cardiomyocyte apoptosis (MTT)
Procedure: as §1
The isolated primary culture of cardiomyocytes was inoculated in an amount of 10^4 cells per well to a 96-well plate, and the volume of each well was 100 μl (marginal wells were filled with sterile PBS). After being cultivated in 5% CO2 and 37° C. incubator for 4 d, they were added with the compound of Formula I at different concentrations (0.3 μM, 1 μM, 3 μM, 10 μM, 30 μM, 100 μM), 3 double-wells were set for each concentration, at the same time, zero setting wells (culture medium, MTT, DMSO), and control wells (culture medium, DMSO) were also set. After continuous inoculation for 48 h, each well was added with 20 μl of MTT solution (5 mg/ml, formulated with PBS (pH=7.4), i.e., 0.5% MTT), and the cultivation was continued for 4 h. After the end of cultivation, culture medium in wells was carefully sucked out. Each well was added with 150 μl of DMSO, shaken at a low speed in a shaking table for 10 min, so that the crystal was sufficiently dissolved. The optical density (OD) value of each well was measured at wavelength of 550 nm by enzyme-linked immunoassay instrument, and each well was repeatedly measured for 5 times and the results were recorded.
Cardiomyocytes were subjected to the primary culture for 4 days according to the above method, and then added with thapsigargin (TG) to induce apoptosis. The compound of the present invention was added for pretreatment 30 min before inducing apoptosis. […] TG was formulated with DMSO, the mother liquid was of 4 mM; and the compound of the present invention was formulated with DMSO, and the mother liquid was of 150 mM. The cell survival rate was measured according to the above MTT method, so as to test the protection effects of the compound of the present invention on the TG-induced cardiomyocytes apoptosis, and the results are shown in Table 2. […]

[3] = compound 0.3 μM + TG 0.4 uM, pretreatment 30 min
[4] = compound 1 μM + TG 0.4 uM, pretreatment 30 min
[5] = compound 3 μM + TG 0.4 uM, pretreatment 30 min
[6] = compound 10 μM + TG 0.4 uM, pretreatment 30 min

O=C(/C=C/c1cccs1)NC(NC(=S)Nc1cccc2cccnc12)C(Cl)(Cl)Cl (stereo not drawn) [Example 1, (2E)-3-(2-thienyl)-N-[1-(8-quinolylamino)thioformylamino-2,2,2-trichloroethyl]-2-acrylamide]
light flux ([1]; 10 μM): 1201.92 ± 29.95
Nucleus area (%) ([1]; 10 μM): 112.61 ± 7.78%
Mitochondrial transmembrane potential ([1]; 10 μM): 112.68 ± 1.46

COc1ccccc1NC(=S)NC(NC(=O)/C=C/c1cccs1)C(Cl)(Cl)Cl (stereo not drawn) [Example 4, (2E)-3-(2-thienyl)-N-[1-(2-methoxyanilino)thioformylamino-2,2,2-trichloroethyl]-2-acrylamide]
inhibition at 300 µM (cardiomyocytes): 5.55 ± 2.29%

O=C(/C=C/c1cccs1)NC(NC(=S)NCc1ccccc1)C(Cl)(Cl)Cl (stereo not drawn) [Example 5, (2E)-3-(2-thienyl)-N-(1-benzylaminothioformylamino-2,2,2-trichloroethyl)-2-acrylamide]
light flux ([1]; 0.3 μM): 1331.12 ± 53.30
Nucleus area (%) ([1]; 0.3 μM): 120.23 ± 5.49%
Mitochondrial transmembrane potential ([1]; 0.3 μM): 117.76 ± 1.87
inhibition at 300 µM (cardiomyocytes): 0.76 ± 4.04%
Survival rate (%) of Cardiomyocyte [2, 3]: 82 ± 4%
Survival rate (%) of Cardiomyocyte [2, 4]: 76 ± 8%
Survival rate (%) of Cardiomyocyte [2, 5]: 74 ± 9%

O=C(/C=C/c1cccs1)NC(NC(=S)NC1CCCCC1)C(Cl)(Cl)Cl (stereo not drawn) [Example 6, (2E)-3-(2-thienyl)-N-(1-cyclohexylaminothio formylamino-2,2,2-trichloroethyl)-2-acrylamide]
light flux ([1]; 1 μM): 1077.08 ± 55.63
Nucleus area (%) ([1]; 1 μM): 100.00 ± 4.63%
Mitochondrial transmembrane potential ([1]; 1 μM): 112.92 ± 0.82
inhibition at 300 µM (cardiomyocytes): 5.54 ± 3.61%
Survival rate (%) of Cardiomyocyte [2, 4]: 76 ± 7%
Survival rate (%) of Cardiomyocyte [2, 5]: 70 ± 6%
Survival rate (%) of Cardiomyocyte [2, 6]: 78 ± 9%

CC(C)NC(=S)NC(NC(=O)/C=C/c1cccs1)C(Cl)(Cl)Cl (stereo not drawn) [Example 7, (2E)-3-(2-thienyl)-N-[1-isopropylaminothioformylamino-2,2,2-trichloroethyl]-2-acrylamide]
inhibition at 300 µM (cardiomyocytes): 1.32 ± 3.42%
Survival rate (%) of Cardiomyocyte [2, 4]: 69 ± 5%
Survival rate (%) of Cardiomyocyte [2, 5]: 70 ± 8%
Survival rate (%) of Cardiomyocyte [2, 6]: 77 ± 11%

O=C(/C=C/c1cccs1)NC(NC(=S)Nc1ccccc1F)C(Cl)(Cl)Cl (stereo not drawn) [Example 8, (2E)-3-(2-thienyl)-N-[1-(2-fluoroanilino)thioformylamino-2,2,2-trichloroethyl]-2-acrylamide]
inhibition at 300 µM (cardiomyocytes): 6.82 ± 1.21%

CC(C)OCCCNC(=S)NC(NC(=O)/C=C/c1cccs1)C(Cl)(Cl)Cl (stereo not drawn) [Example 9, (2E)-3-(2-thienyl)-N-[1-(3-isopropoxypropylamino)thioformylamino-2,2,2-trichloroethyl]-2-acrylamide]
inhibition at 300 µM (cardiomyocytes): 5.3 ± 0.95%

COC(=O)c1ccccc1NC(=S)NC(NC(=O)/C=C/c1cccs1)C(Cl)(Cl)Cl (stereo not drawn) [Example 10, (2E)-3-(2-thienyl)-N-[1-(2-methoxyformylanilino)thioformylamino-2,2,2-trichloroethyl]-2-acrylamide]
inhibition at 300 µM (cardiomyocytes): 3.24 ± 1.7%

O=C(/C=C/c1cccs1)NC(NC(=S)NC1CCCCCC1)C(Cl)(Cl)Cl (stereo not drawn) [Example 11, (2E)-3-(2-thienyl)-N-(1-cycloheptylaminothioformylamino-2,2,2-trichloroethyl)-2-acrylamide]
inhibition at 300 µM (cardiomyocytes): 7.62 ± 5.77%

CS/C(=N\C(NC(=O)/C=C/c1cccs1)C(Cl)(Cl)Cl)Nc1cccc2cccnc12 (stereo not drawn) [Example 14, (2E)-3-(2-thienyl)-N-[1-(8-quinolylamino)methylthiomethenylamino-2,2,2-trichloroethyl]-2-acrylamide]
inhibition at 300 µM (cardiomyocytes): 8.34 ± 5.78%

C/C=C(/C)C(=O)O[C@H]1C(C)=C2[C@H]([C@@H]1OC(=O)CCCCCCC)[C@@](C)(OC(C)=O)C[C@H](OC(=O)CCC)[C@@]1(O)[C@H]2OC(=O)[C@@]1(C)O [TG, thapsigargin, reference compound]
Survival rate (%) of Cardiomyocyte ([2]; TG alone 0.4 uM (apoptosis inducer)): 59 ± 1.1%

(2E)-3-(2-thienyl)-N-[1-(1-morpholinyl)thioformyl amino-2,2,2-trichloroethyl]-2-acrylamide [Example 12]
Nucleus area (%) ([1]; 10 μM): 102.93 ± 5.12%
Mitochondrial transmembrane potential ([1]; 10 μM): 133.11 ± 6.30
Inhibition rate (%) of cardiomyocytes (cardiomyocytes): 10.44 ± 5.66%
Survival rate (%) of Cardiomyocyte [2, 3]: 79 ± 7%
Survival rate (%) of Cardiomyocyte [2, 4]: 80 ± 9%
Survival rate (%) of Cardiomyocyte [2, 5]: 83 ± 11%

(2E)-3-(2-thienyl)-N-[1-(4-methylpiperazinyl)thioformylamino-2,2,2-trichloroethyl]-2-acrylamide [Example 13]
Mitochondrial transmembrane potential ([1]; 3 μM): 116.41 ± 0.64
Inhibition rate (%) of cardiomyocytes (cardiomyocytes): 1.66 ± 2.70%
Survival rate (%) of Cardiomyocyte [2, 3]: 72 ± 3%
Survival rate (%) of Cardiomyocyte [2, 4]: 71 ± 3%
Survival rate (%) of Cardiomyocyte [2, 5]: 67 ± 3%
